Results from PubChem BioAssay (NCI).
Where “and” joins values, the source holds several entries; their conditions need not be identical. Equal values may be shown once.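 A five-concentration, 48-hour dose response in 96-well plates underlies each endpoint, interpolated linearly between surrounding concentrations. GI50 = concentration required for 50% inhibition of growth. TGI is the concentration that stops growth completely.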

Columns and labels:
Assay in all cases: inhibition of tumour cell growth, NCI panel, 48 h
[1] = tested on: UACC-257 melanoma
[2] = tested on: U251 CNS
[3] = tested on: MCF7 breast
[4] = tested on: HS 578T breast
[5] = tested on: K-562 leukemia
[6] = tested on: MDA-MB-435
[7] = tested on: MALME-3M melanoma
[8] = tested on: OVCAR-5 ovarian
[9] = tested on: OVCAR-4 ovarian
[10] = tested on: M14 melanoma

| SMILES | TGI [1] | TGI [2] | TGI [3] | TGI [4] | TGI [5] | TGI [6] | TGI [7] | TGI [8] | TGI [9] | TGI [10] | GI50 [1] | GI50 [2] | GI50 [3] | GI50 [4] | GI50 [5] | GI50 [6] | GI50 [7] | GI50 [8] | GI50 [9] | GI50 [10] |
| --- | --- | --- | --- | --- | --- | --- | --- | --- | --- | --- | --- | --- | --- | --- | --- | --- | --- | --- | --- | --- |
| O=C1OC(CN2CCOCC2)CN1/N=C/c1ccc([N+](=O)[O-])o1 (configuration not stated) | > 100 µM | 98.6 µM | > 100 µM | > 100 µM | > 100 µM | 33.3 µM | 46.6 µM | > 100 µM | > 100 µM | 45.6 µM | – | – | – | – | – | – | – | – | – | – |
| Cc1cccc2c(N)c3ccccc3nc12 | 3.63 µM | 7.84 µM | 11.6 µM | 17.4 µM | 13.5 µM | 4.54 µM | 3.21 µM | 11.9 µM | 11.7 µM | 5.19 µM | 1.87 µM | 2.19 µM | 1.32 µM | 3.44 µM | 1.3 µM | 1.67 µM | 1.39 µM | 1.37 µM | 1.69 µM | 1.87 µM |
| Cc1nc(Nc2nc3ccccc3o2)nc(-c2cccc([N+](=O)[O-])c2)c1C(=O)Nc1ccc(F)c(Cl)c1 | 8.23 µM | 8.27 µM | 9.73 µM | 38.8 µM | > 100 µM | 8.01 µM | 5.79 µM | > 100 µM | 35 µM | > 100 µM | 2.31 µM | 2.06 µM | 2.04 µM | 2.87 µM | 1.84 µM | 2.16 µM | 1.92 µM | 3.8 µM | 1.62 µM | 3.26 µM |
| CC(=O)Oc1ccc(C(c2ccc(OC(C)=O)cc2)c2ccccn2)cc1 | > 100 µM | > 100 µM | > 100 µM | 0.677 µM and 0.638 µM | > 100 µM | > 100 µM | > 100 µM | > 100 µM and 95.4 µM | 4.42 µM | > 100 µM | – | – | 0.516 µM | – | 39.3 µM | 53.2 µM | 29.4 µM | 55.7 µM | 0.287 µM | 56.6 µM |
| Cn1cnc([N+](=O)[O-])c1Sc1ncn[nH]1 | > 100 µM | > 100 µM | > 100 µM | > 100 µM | > 100 µM | > 100 µM | > 100 µM | > 100 µM | > 100 µM | > 100 µM | 68.2 µM | > 100 µM | > 100 µM | 52.8 µM | 32.3 µM | > 100 µM | 23.9 µM | > 100 µM | 72 µM | > 100 µM |
| COc1ccc(C2=CC(c3ccc(OC)c(OC)c3)c3c(c4ccccc4oc3=O)O2)cc1OC (configuration not stated) | > 100 µM | > 100 µM | > 100 µM | > 26.9 µM | > 100 µM | 0.831 µM | > 100 µM | > 100 µM | > 100 µM | > 31.3 µM | 1.13 µM | 3.19 µM | 0.424 µM | 0.957 µM | 1.02 µM | 0.244 µM | > 100 µM | 6.33 µM | 3.85 µM | 1.27 µM |
| Clc1nc(Cl)c2ncn(Cc3ccc(Cn4cnc5c(Cl)nc(Cl)nc54)cc3)c2n1 | 30.5 µM | 27.7 µM | 14.9 µM | > 40.2 µM | 14 µM | 33.6 µM | 29.3 µM | 10.9 µM | 28.6 µM | 27 µM | 4.87 µM | 13.2 µM | 2.22 µM | – | 0.661 µM | 14.2 µM | 5.62 µM | 2.03 µM | 13.6 µM | 11.2 µM |
| Cn1c(=O)c(Oc2ccc(F)cc2F)cc2cnc(NCCS(C)(=O)=O)nc21 | > 25 µM | > 25 µM | > 25 µM | > 25 µM | > 25 µM | > 25 µM | > 25 µM | > 25 µM | > 25 µM | > 25 µM | > 25 µM | > 25 µM | > 25 µM | > 25 µM | > 25 µM | > 25 µM | > 25 µM | > 25 µM | > 25 µM | > 25 µM |
| COc1cc(/C=C/C(=O)c2cccnc2Nc2ccc(F)cc2)cc(OC)c1OC | 21.6 µM | 11.5 µM | 13.6 µM | 95.2 µM | – | 69.3 µM | 48.9 µM | 17.8 µM | 19 µM | 9.94 µM | 2.9 µM | 2.78 µM | 2.44 µM | 3.68 µM | – | 3.05 µM | 6.9 µM | 4.1 µM | 3.81 µM | 3.19 µM |
| Cc1cc(OCc2nnc3n2N=C(c2ccc(Cl)cc2Cl)CS3)ccc1Cl | 93.2 µM | > 100 µM | > 100 µM | > 100 µM | > 100 µM | > 100 µM | > 100 µM | > 100 µM | > 100 µM | > 100 µM | 42.1 µM | 71.3 µM | 39.1 µM | 37.9 µM | 54.7 µM | 26.5 µM | 68.9 µM | > 100 µM | 59.6 µM | 43.4 µM |
| CC(C)CCN[C@@H]1CCc2cc(O)c(N3CC(=O)NS3(=O)=O)c(F)c2C1 | > 100 µM | > 100 µM | > 100 µM | > 100 µM | > 100 µM | > 100 µM | > 100 µM | > 100 µM | > 100 µM | > 100 µM | > 100 µM | > 100 µM | > 100 µM | > 100 µM | > 100 µM | > 100 µM | > 100 µM | > 100 µM | > 100 µM | > 100 µM |
| CCCNc1nc2ccccc2c2c1S(=O)(=O)c1ccc(Cl)cc1C2=O | > 50 µM | > 50 µM | > 50 µM | > 50 µM | > 50 µM | > 50 µM | > 50 µM | – | > 50 µM | > 50 µM | 2.15 µM | 1.6 µM | 1.09 µM | 1.21 µM | 0.45 µM | 1.11 µM | 1.46 µM | – | 0.95 µM | 0.625 µM |
| CC(C)COC(=O)c1ccc2[nH]c(O)c(C=Nc3ccc(S(N)(=O)=O)cc3)c2c1 | 9.44 µM | 4.13 µM | 4.5 µM | 6.07 µM | 17.1 µM | 5.79 µM | 10.9 µM | 13.8 µM | 7.79 µM | 4.8 µM | 3.99 µM | 0.879 µM | 1.24 µM | 1.45 µM | 2.32 µM | 1.68 µM | 4.97 µM | 1.87 µM | 2.39 µM | 1.25 µM |
